Columns and labels:
[1] = Stability of daptomycin reconstituted to 1 mg/ml in normal saline or 5% dextrose, stored at room and refrigerated temperature; assay type: physicochemical; details: solutions of daptomycin and dextrose, 24 h
Experimental: Next, the solutions were stored at room temperature (approximately 25°C) and refrigerated temperatures and assayed at the 6 h and 24 h timepoints.

[2] = Stability of daptomycin reconstituted in buffered diluents and diluted in 5% dextrose (appearance of degradation products); assay type: physicochemical; details: dissolved in 5% dextrose solution
From the text: The effectiveness of the buffered diluents in suppressing the appearance of degradation products is shown below in Table 2: Table 2: […]

## daptomycin
[1]; refrigerated temperature
  potency loss: about 5%
[1]; room temperature
  potency loss: 17%
[2]; 24 h at 25°C
  degradation: 15-20%
[2]; 7 days at 5°C
  degradation: 15-20%

Reference: EP0386951A2 (ELI LILLY AND COMPANY, priority 1989, dated 1990)
